24 molecules from EP4806894A1, “TNAP INHIBITORY COMPOUND AND USE THEREOF” (Rednvia Co., Ltd., priority 2023, dated 2025) can be followed below.

For one experiment, the target named is T1, TNAP (Homo sapiens, UniProt P05186).
T1 sequence (P05186 18-502 limits assumed): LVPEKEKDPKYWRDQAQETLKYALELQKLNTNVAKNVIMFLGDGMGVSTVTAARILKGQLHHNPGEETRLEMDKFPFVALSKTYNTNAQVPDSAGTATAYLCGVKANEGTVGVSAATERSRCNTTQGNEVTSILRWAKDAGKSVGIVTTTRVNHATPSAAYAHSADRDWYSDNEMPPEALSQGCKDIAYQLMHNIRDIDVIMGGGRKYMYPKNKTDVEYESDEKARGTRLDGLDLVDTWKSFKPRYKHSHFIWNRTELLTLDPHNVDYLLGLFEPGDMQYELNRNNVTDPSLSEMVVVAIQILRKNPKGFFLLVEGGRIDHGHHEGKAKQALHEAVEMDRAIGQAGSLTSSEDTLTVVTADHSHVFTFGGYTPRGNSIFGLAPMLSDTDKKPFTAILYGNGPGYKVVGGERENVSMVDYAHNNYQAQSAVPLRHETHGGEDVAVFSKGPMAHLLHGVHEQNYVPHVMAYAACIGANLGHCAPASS
Briefly: TNAP inhibitory activity, colorimetric assay (alkaline phosphatase assay kit ab83369, pNPP substrate). Format: biochemical. As to conditions: TNAP enzyme, 2 hours at room temperature, absorbance 405 nm. The method, then: The TNAP inhibitory activity of the compounds according to the present invention was analyzed by colorimetric assay.
The experiments were performed according to the protocol of the alkaline phosphatase assay kit ab83369.
TNAP enzyme at a concentration of 0.2 ng/µl was dispensed into a 96-well plate (Costar) (10 µl/well), to which the 10-fold diluted test substance was added (15 µl/well). The plate was incubated at room temperature, shielded from light, for 10 minutes to allow the enzyme and compound to act. After incubation, 125 µl of 1 mM substrate (pNPP) was added to each well of the plate, and the plate was incubated for 2 hours at room temperature in a darkened state to allow the enzyme, substrate, and test compound to act. Absorbance was measured at 405 nm using a microplate reader (Tecan spark), and IC50 was calculated using GraphPad Prism 9. The amount of p-nitrophenol produced was calculated through the absorbance, and the degree of TNAP activity inhibition was evaluated through the degree of inhibition of p-nitrophenol production, and the concentration of the compound that inhibited 50% was calculated as the IC50 value.

The test system of the next experiment is saos-2 cells. Kind of experiment: Anticalcification efficacy in saos-2 cells (osteogenic medium, Alizarin Red staining). As to conditions: test compound 1 µM, 7 days osteogenic medium, Alizarin Red absorbance 540 nm; for inhibition at 1 µM: Homo sapiens, 168 h, read-out: calcification inhibition. Format: cell-based. The protocol: To confirm the inhibitory effect of calcification in saos-2 cells in which calcification is induced by overexpression of TNAP, saos-2 cells were cultured in a culture medium in an incubator at 37°C, 95% humidity, and 5% CO2. RPMI-1640 (Corning) supplemented with 10% FBS (Gibco) and 1% Pen/Strep (Gibco) was used as the culture medium.
Saos-2 cells were seeded in a 48-well plate at the density of 1.5 x 10^4 cells/well and used in the experiment when they reached 80-90% confluence after stabilization for 2 days.
After saos-2 cells were cultured in a 48-well plate to 80-90% confluence, the culture medium was removed and replaced with an osteogenic medium (OM). DMEM (Gibco) containing 10% FBS, 1% Pen/Strep, 100 nM dexamethasone (Sigma), 10 mM β-glycerophosphate (Sigma), and 0.05 mM L-ascorbic acid (Sigma) was used as the OM. Osteogenic differentiation of saos-2 cells by OM was induced for 7 days, and OM was replaced every 2 to 3 days.
When inducing calcification through OM in saos-2 cells, the cells were treated with concentrations of […] of the TNAP inhibitor test compounds with the OM replacement cycle, except for the control group (OM).
After 7 days of OM induction, the medium was removed from each well and the plate was washed twice with PBS. Cells were fixed with 4% paraformaldehyde for 1 hour, then the fixative was removed and washed twice with deionized water (DW). ARS solution was added to the plate and shaken for 1 hour to stain the cells. When the cells were sufficiently stained red, the dye was removed, the cells were washed carefully with DW, dried, and then photographs were taken of the stained cells. The red-stained area represents calcification induced by OM, and the degree of calcification was determined based on the degree of redness. To quantify this, 10% cetylpyridinium chloride was dispensed into the wells and the dye was dissolved. The dye-dissolved solution was transferred to each well of a 96 well plate and absorbance was measured at 540 nm.
The degree of decrease in the measured absorbance by the test compounds based on the absorbance for OM was evaluated as the degree of inhibition of calcification.

“2-methoxy-N-(5-oxo-5,6,7,8-tetrahydro-1,6-naphthyridine-3-yl)benzenesulfonamide [Example 26]”: the IC50 (usually the concentration needed to halve the response being measured) at TNAP lay within 0.01 to 0.1 µM. The calcification inhibition result in the experiment with saos-2 cells was “A (inhibition of 50% or more was expressed as "A")”.

For the molecule “4'-(aminomethyl)-4-fluoro-N-(5-oxo-5,6,7,8-tetrahydro-1,6-naphthyridine-3-yl)-[1,1'-biphenyl]-2-sulfonamide hydrochloride [Example 39]”, the IC50 at TNAP lay in the range of 0.01 to 0.1 µM. In addition, the calcification inhibition entry in the experiment on saos-2 cells was “A (inhibition of 50% or more was expressed as "A")”.

On TNAP, `COc1ccc(Br)cc1S(=O)(=O)Nc1cnc2c(c1)C(=O)NC2` [Example 2, 5-bromo-2-methoxy-N-(5-oxo-6,7-dihydro-5H-pyrrolo[3,4-b]pyridine-3-yl)benzenesulfonamide] returned an IC50 of 0.01 to 0.1 µM. Also, the inhibition (in general, how much of the control response was suppressed) at 1 µM in the experiment on saos-2 cells was at least 50%.

Take `COc1ccc(OC)c(S(=O)(=O)Nc2cnc3c(c2)C(=O)NC3)c1` [Example 3, 2,5-dimethoxy-N-(5-oxo-6,7-dihydro-5H-pyrrolo[3,4-b]pyridine-3-yl)benzenesulfonamide]: the IC50 at TNAP is 0.01 to 0.1 µM. The inhibition at 1 µM in the experiment on saos-2 cells is at least 50%.

At TNAP, `COc1ccc(F)cc1S(=O)(=O)Nc1cnc2c(c1)C(=O)NC2` [Example 4, 5-fluoro-2-methoxy-N-(5-oxo-6,7-dihydro-5H-pyrrolo[3,4-b]pyridine-3-yl)benzenesulfonamide] showed an IC50 of 0.01 to 0.1 µM. The inhibition at 1 µM with saos-2 cells was at least 50%.

In the case of `O=C1NCc2ncc(NS(=O)(=O)c3cc(Br)cc4c3OCC4)cc21` [Example 5, 5-bromo-N-(5-oxo-6,7-dihydro-5H-pyrrolo[3,4-b]pyridine-3-yl)-2,3-dihydrobenzofuran-7-sulfonamide], the IC50 against TNAP was 0.1 to 1 µM. In addition, in the experiment on saos-2 cells, the inhibition at 1 µM fell in the range of 0 to 50%.

`COc1ccc(OC)c(S(=O)(=O)Nc2cnc3c(c2)C(=O)NCC3)c1` [Example 7, 2,5-dimethoxy-N-(5-oxo-5,6,7,8-tetrahydro-1,6-naphthyridine-3-yl)benzenesulfonamide] returned an IC50 against TNAP of at most 0.01 µM. For the same molecule, the inhibition at 1 µM in the experiment on saos-2 cells is at least 50%.

`COc1ccc(F)cc1S(=O)(=O)Nc1cnc2c(c1)C(=O)NCC2` [Example 8, 5-fluoro-2-methoxy-N-(5-oxo-5,6,7,8-tetrahydro-1,6-naphthyridine-3-yl)benzenesulfonamide] showed a half-inhibitory concentration (IC50) against TNAP of 0.01 to 0.1 µM. For the same molecule, the inhibition at 1 µM in the experiment on saos-2 cells is at least 50%.

Regarding `COc1ccc(Br)cc1S(=O)(=O)Nc1cnc2c(c1)C(=O)NCC2` [Example 9, 5-bromo-2-methoxy-N-(5-oxo-5,6,7,8-tetrahydro-1,6-naphthyridine-3-yl)benzenesulfonamide], on TNAP, the IC50 is at most 0.01 µM. Moreover, the inhibition at 1 µM with saos-2 cells was at least 50%.

For the molecule `O=C1NCCc2ncc(NS(=O)(=O)c3cc(Br)cc4c3OCC4)cc21` [Example 10, 5-bromo-N-(5-oxo-5,6,7,8-tetrahydro-1,6-naphthyridine-3-yl)-2,3-dihydrobenzofuran-7-sulfonamide], the IC50 against TNAP was 0.1 to 1 µM. The inhibition at 1 µM with saos-2 cells is at least 50%.

`O=C1NCc2ncc(NS(=O)(=O)c3cc(F)ccc3Br)cc21` [Example 11, 2-bromo-5-fluoro-N-(5-oxo-6,7-dihydro-5H-pyrrolo[3,4-b]pyridine-3-yl)benzenesulfonamide]: at TNAP, the IC50 was at least 1 µM. Moreover, the inhibition at 1 µM in the experiment with saos-2 cells is at least 50%.

`O=C1NCc2ncc(NS(=O)(=O)c3c(F)cc(F)cc3Br)cc21` [Example 12, 2-bromo-4,6-difluoro-N-(5-oxo-6,7-dihydro-5H-pyrrolo[3,4-b]pyridine-3-yl)benzenesulfonamide] came in with a concentration for half-maximal inhibition (IC50) at TNAP of at least 1 µM. In addition, the inhibition at 1 µM in the experiment with saos-2 cells was under 0%.

On to `COc1ccc(Cl)cc1S(=O)(=O)Nc1cnc2c(c1)C(=O)NCCC2` [Example 13, 5-chloro-2-methoxy-N-(5-oxo-6,7,8,9-tetrahydro-5H-pyrido[3,2-c]azepine-3-yl)benzenesulfonamide], for which, at TNAP, the IC50 was 0.1 to 1 µM. Also, the inhibition at 1 µM in the experiment on saos-2 cells was at least 50%.

Consider `COc1ccc(Br)cc1S(=O)(=O)Nc1cnc2c(c1)C(=O)NCCC2` [Example 14, 5-bromo-2-methoxy-N-(5-oxo-6,7,8,9-tetrahydro-5H-pyrido[3,2-c]azepine-3-yl)benzenesulfonamide], for which the IC50 on TNAP lay in the range of 0.1 to 1 µM. In the experiment on saos-2 cells, the inhibition at 1 µM was at least 50%.

Consider `COc1ccc(F)cc1S(=O)(=O)Nc1cnc2c(c1)C(=O)NCCC2` [Example 15, 5-fluoro-2-methoxy-N-(5-oxo-6,7,8,9-tetrahydro-5H-pyrido[3,2-c]azepine-3-yl)benzenesulfonamide], for which, on TNAP, the concentration for half-maximal inhibition (IC50) fell in the range of 0.1 to 1 µM. Also, the inhibition at 1 µM in the experiment with saos-2 cells is at least 50%.

Take `COc1ccc(OC)c(S(=O)(=O)Nc2cnc3c(c2)C(=O)NCCC3)c1` [Example 16, 2,5-dimethoxy-N-(5-oxo-6,7,8,9-tetrahydro-5H-pyrido[3,2-c]azepine-3-yl)benzenesulfonamide]: the half-inhibitory concentration (IC50) against TNAP lay in the range of 0.1 to 1 µM. The inhibition at 1 µM in the experiment with saos-2 cells is at least 50%.

As to `O=C1NCCCc2ncc(NS(=O)(=O)c3cc(Br)cc4c3OCC4)cc21` [Example 17, 5-bromo-N-(5-oxo-6,7,8,9-tetrahydro-5H-pyrido[3,2-c]azepine-3-yl)-2,3-dihydrobenzofuran-7-sulfonamide], on TNAP, the IC50 is at least 1 µM. Moreover, the inhibition at 1 µM in the experiment with saos-2 cells was under 0%.

`O=C1NCc2ncc(NS(=O)(=O)c3cccc4c3OCC4)cc21` [Example 18, N-(5-oxo-6,7-dihydro-5H-pyrrolo[3,4-b]pyridine-3-yl)-2,3-dihydrobenzofuran-7-sulfonamide]: the IC50 against TNAP is at least 1 µM. Besides, the inhibition at 1 µM in the experiment on saos-2 cells is under 0%.

The molecule `O=C1NCCc2ncc(NS(=O)(=O)c3cccc4c3OCC4)cc21` [Example 19, N-(5-oxo-5,6,7,8-tetrahydro-1,6-naphthyridine-3-yl)-2,3-dihydrobenzofuran-7-sulfonamide] returned an IC50 against TNAP of at least 1 µM. In the experiment with saos-2 cells, the inhibition at 1 µM is under 0%.

The molecule `O=C1NCc2ncc(NS(=O)(=O)c3cc(Cl)cc4c3OCC4)cc21` [Example 20, 5-chloro-N-(5-oxo-6,7-dihydro-5H-pyrrolo[3,4-b]pyridine-3-yl)-2,3-dihydrobenzofuran-7-sulfonamide] returned a 50% inhibitory concentration (IC50) at TNAP of at least 1 µM. In addition, the inhibition at 1 µM in the experiment with saos-2 cells was under 0%.

`O=C1NCc2ncc(NS(=O)(=O)c3cc(F)cc4c3OCC4)cc21` [Example 21, 5-fluoro-N-(5-oxo-6,7-dihydro-5H-pyrrolo[3,4-b]pyridine-3-yl)-2,3-dihydrobenzofuran-7-sulfonamide]: the half-inhibitory concentration (IC50) against TNAP is at least 1 µM. Moreover, the inhibition at 1 µM with saos-2 cells was under 0%.

Take `O=C1NCCc2ncc(NS(=O)(=O)c3cc(Cl)cc4c3OCC4)cc21` [Example 22, 5-chloro-N-(5-oxo-5,6,7,8-tetrahydro-1,6-naphthyridine-3-yl)-2,3-dihydrobenzofuran-7-sulfonamide]: the half-maximal inhibitory concentration (IC50) against TNAP is 0.1 to 1 µM. In addition, the inhibition at 1 µM in the experiment with saos-2 cells is at least 50%.

With `O=C1NCCc2ncc(NS(=O)(=O)c3cc(F)cc4c3OCC4)cc21` [Example 23, 5-fluoro-N-(5-oxo-5,6,7,8-tetrahydro-1,6-naphthyridine-3-yl)-2,3-dihydrobenzofuran-7-sulfonamide], the IC50 at TNAP was at least 1 µM. The inhibition at 1 µM in the experiment with saos-2 cells was under 0%.

For the molecule `COc1ccc(Cl)cc1S(=O)(=O)Nc1cncc(C(N)=O)c1` [SBD-425, reference compound], on TNAP, the IC50 was in the range of 0.1 to 1 µM.
